From ChEMBL document CHEMBL3046232, “Synthesis, pharmacological evaluation and molecular docking studies of indanone derivatives” (2012)

How the values were obtained:
Format in all cases: functional
Mus musculus [1] = experiment: Analgesic activity in Mus musculus Swiss albino (mouse) assessed as increase in reaction time of paw licking or jump response at 50 mg/kg, po after 90 min by hot plate method
Mus musculus [2] = experiment: Analgesic activity in Mus musculus Swiss albino (mouse) assessed as increase in reaction time of paw licking or jump response at 50 mg/kg, po after 60 min by hot plate method
Mus musculus [3] = experiment: Analgesic activity in Mus musculus Swiss albino (mouse) assessed as increase in reaction time of paw licking or jump response at 50 mg/kg, po after 30 min by hot plate method
Rattus norvegicus [4] = experiment: Anti-inflammatory activity in Rattus norvegicus Wistar albino (rat) assessed as protection against carrageenan-induced paw edema at 50 mg/kg after 3 hr
Rattus norvegicus [5] = experiment: Anti-inflammatory activity in Rattus norvegicus Wistar albino (rat) assessed as protection against carrageenan-induced paw edema at 50 mg/kg after 2 hr
Rattus norvegicus [6] = experiment: Anti-inflammatory activity in Rattus norvegicus Wistar albino (rat) assessed as protection against carrageenan-induced paw edema at 50 mg/kg after 90 min
Rattus norvegicus [7] = experiment: Anti-inflammatory activity in Rattus norvegicus Wistar albino (rat) assessed as protection against carrageenan-induced paw edema at 50 mg/kg after 60 min
Rattus norvegicus [8] = experiment: Anti-inflammatory activity in Rattus norvegicus Wistar albino (rat) assessed as protection against carrageenan-induced paw edema at 50 mg/kg after 30 min
Penicillium chrysogenum [9] = experiment: Antimicrobial activity against at Penicillium chrysogenum at 100 ug/ml by cup-plate method; conditions: read-out: IZ
Penicillium chrysogenum [10] = experiment: Antimicrobial activity against at Penicillium chrysogenum at 50 ug/ml by cup-plate method; conditions: read-out: IZ
Penicillium chrysogenum [11] = experiment: Antimicrobial activity against at Penicillium chrysogenum at 25 ug/ml by cup-plate method; conditions: read-out: IZ
Aspergillus niger [12] = experiment: Antimicrobial activity against at Aspergillus niger at 100 ug/ml by cup-plate method; conditions: read-out: IZ
Aspergillus niger [13] = experiment: Antimicrobial activity against at Aspergillus niger at 50 ug/ml by cup-plate method; conditions: read-out: IZ
Bacillus subtilis [14] = experiment: Antimicrobial activity against at Bacillus subtilis at 100 ug/ml by cup plate method; conditions: read-out: IZ
Aspergillus niger [15] = experiment: Antimicrobial activity against at Aspergillus niger at 25 ug/ml by cup-plate method; conditions: read-out: IZ
Bacillus subtilis [16] = experiment: Antimicrobial activity against at Bacillus subtilis at 50 ug/ml by cup plate method; conditions: read-out: IZ
Escherichia coli [17] = experiment: Antimicrobial activity against at Escherichia coli at 100 ug/ml by cup-plate method; conditions: read-out: IZ
Escherichia coli [18] = experiment: Antimicrobial activity against at Escherichia coli at 50 ug/ml by cup-plate method; conditions: read-out: IZ
Escherichia coli [19] = experiment: Antimicrobial activity against at Escherichia coli at 25 ug/ml by cup-plate method; conditions: read-out: IZ
Bacillus subtilis [20] = experiment: Antimicrobial activity against at Bacillus subtilis at 25 ug/ml by cup plate method; conditions: read-out: IZ

Structure (SMILES) | Activity (Mus musculus [1]) | Activity (Mus musculus [2]) | Activity (Mus musculus [3]) | Activity (Rattus norvegicus [4]) | Activity (Rattus norvegicus [5]) | Activity (Rattus norvegicus [6]) | Activity (Rattus norvegicus [7]) | Activity (Rattus norvegicus [8]) | zone of inhibition at 100 µg/mL (Penicillium chrysogenum [9]) | zone of inhibition at 50 µg/mL (Penicillium chrysogenum [10]) | zone of inhibition at 25 µg/mL (Penicillium chrysogenum [11]) | zone of inhibition at 100 µg/mL (Aspergillus niger [12]) | zone of inhibition at 50 µg/mL (Aspergillus niger [13]) | zone of inhibition at 100 µg/mL (Bacillus subtilis [14]) | zone of inhibition at 25 µg/mL (Aspergillus niger [15]) | zone of inhibition at 50 µg/mL (Bacillus subtilis [16]) | zone of inhibition at 100 µg/mL (Escherichia coli [17]) | zone of inhibition at 50 µg/mL (Escherichia coli [18]) | zone of inhibition at 25 µg/mL (Escherichia coli [19]) | zone of inhibition at 25 µg/mL (Bacillus subtilis [20])
COc1ccc(-c2onc3c2C(=O)c2ccccc2-3)cc1OC | 23.54% | 19.02% | 12.61% | 7.32% | 6.52% | 8.12% | 7.21% | 6.21% | 13.8 mm | 5.25 mm | 4.75 mm | 17.8 mm | 13.8 mm | 19.7 mm | 6.5 mm | 12.8 mm | 24.5 mm | 11 mm | 7.25 mm | –
O=C1c2ccccc2-c2noc(-c3cccc([N+](=O)[O-])c3)c21 | 14.2% | 10.38% | 5.44% | 6.44% | 7.44% | 5.52% | 3.99% | 2.02% | 13.5 mm | 7 mm | – | 17 mm | 13.2 mm | 13.5 mm | 4.25 mm | 7 mm | 17 mm | 13.2 mm | – | 4 mm
O=C1c2ccccc2-c2noc(-c3ccc(Cl)cc3)c21 | 16.1% | 12.8% | 7.18% | 16.21% | 15.11% | 12.16% | 12% | 6.31% | 12 mm | 8.5 mm | – | 13 mm | 9.75 mm | 18.5 mm | 5.5 mm | 11.5 mm | 16 mm | 6.75 mm | 6 mm | 5.25 mm
Cc1ccc(-c2onc3c2C(=O)c2ccccc2-3)cc1 | 27.01% | 23.12% | 15.55% | 30.33% | 36.45% | 45.72% | 43.66% | 35.29% | 15.5 mm | 6.75 mm | – | 28 mm | 18.5 mm | 15 mm | 10.5 mm | 10.5 mm | 25.3 mm | 15 mm | 10 mm | 6.77 mm
O=C1c2ccccc2-c2noc(-c3ccc(O)cc3)c21 | 27.87% | 23.74% | 16.52% | 33.45% | 36.33% | 42.6% | 41.46% | 31.16% | 14 mm | 6 mm | 4.35 mm | 21 mm | 13 mm | 17.5 mm | 6 mm | 11.2 mm | 13.8 mm | 5.25 mm | 4.75 mm | –
CN(C)c1ccc(-c2onc3c2C(=O)c2ccccc2-3)cc1 | 9.93% | 5.65% | 5.02% | 20.1% | 19.21% | 14.23% | 8.45% | 7.11% | 12.2 mm | 7.25 mm | 4 mm | 13 mm | 7.5 mm | 12 mm | 5.5 mm | 4.75 mm | 17.2 mm | 12 mm | – | –
COc1ccc(-c2onc3c2C(=O)c2ccccc2-3)cc1 | 8.04% | 5.13% | 3.06% | 9.21% | 12.32% | 16.38% | 12.21% | 7.71% | 19.6 mm | 12.7 mm | 5.35 mm | 17 mm | 11.7 mm | 14.8 mm | 7.25 mm | 5.5 mm | 20.2 mm | – | 5.5 mm | –
COc1cc(-c2onc3c2C(=O)c2ccccc2-3)cc(OC)c1OC | 12.54% | 9.75% | 4.48% | 26.32% | 29.15% | 29.14% | 22.38% | 17.21% | 19 mm | 9.25 mm | 5.5 mm | 19.2 mm | 11.2 mm | 18.8 mm | 6.49 mm | 11.5 mm | 27.8 mm | 16.5 mm | – | 5.25 mm
CC1(C)S[C@@H]2[C@H](NC(=O)[C@H](N)c3ccccc3)C(=O)N2[C@H]1C(=O)O [AMPICILLIN] | – | – | – | – | – | – | – | – | – | – | – | – | – | 21.1 mm | – | 12.1 mm | 32.7 mm | 20.4 mm | 11.2 mm | 9.1 mm
OC(Cn1cncn1)(Cn1cncn1)c1ccc(F)cc1F [FLUCONAZOLE] | – | – | – | – | – | – | – | – | 21.2 mm | 14.2 mm | 7.32 mm | 31.8 mm | 21.7 mm | – | 11.9 mm | – | – | – | – | –
COc1ccc2c(c1)c(CC(=O)O)c(C)n2C(=O)c1ccc(Cl)cc1 [INDOMETHACIN] | – | – | – | 20.22% | 20.15% | 21.12% | 23.22% | 28.56% | – | – | – | – | – | – | – | – | – | – | – | –
